Tests used:
HBV [1] = conditions: in vivo; cited from earlier work
HDV = assay: Inhibition of HDV infection of primary human hepatocytes, antigenomic HDV RNA by real-time PCR; format: cell-based; conditions: for Inhibition of HDV replication: 50 nM final concentration, primary human hepatocytes, 7 days
Source text: (§1) In order to test inhibitory activity of the IA and related proteins, primary human hepatocytes infected in the presence of 5% polyethylene glycol 8000 (Sigma) were used with in vitro assembled HDV at a multiplicity of 10 genome equivalents (GE) per cell, or by HBV at a multiplicity of 50 GE/cell. […] One related protein was the S1S2, lacking the Fc domain (FIG. 1B). Another was a synthetic peptide corresponding to positions 2-48 of the ayw PreS1, with myristoylation at the N terminal glycine as described in Engelke, et al., 2006, Hepatology, 43:750-760. After 7-8 days total, cell RNA was extracted and HDV antigenomic RNA and HBV RNA were quantitated using real-time PCR.
Others have shown that peptides based on the N terminus of HBV preS1 are able to interfere with infection of primary hepatocytes and of HepaRG cells, a cell line made from a differentiated liver tumor (Gripon, et al., 2005, J. Virol., 79:1613-1622, Gripon, et al., 2002, Proc. Natl. Acad. Sci., USA 99:15655-15660). […] Secreted IAs were tested for their ability to interfere with the infection of primary human hepatocytes by HDV. For these studies the source of IA was simple dilutions of the media from transiently transfected cells that both expressed and secreted the IA. To assess HDV replication the total RNA was extracted after 7 days and antigenomic RNA was quantitated by real-time PCR.

HBV [2] = conditions: patients chronically infected with HBV; cited from earlier work
[3] = Ultracentrifugation of media to test whether released IA is a soluble protein; format: physicochemical; conditions: conditions that pellet HDV and HBV subviral particles
Source text: In addition, experiments were designed to tested whether the released IA was actually a soluble protein. Media samples containing albumin and secreted […] were clarified by low speed centrifugation and then subjected to ultracentrifugation, using conditions that pellet HDV and HBV subviral particles. It was observed that about >85% of the albumin and S1S2-IA remained in the supernatant. Without wishing to be bound by any particular theory, it is believed that because the IAs behaved similar to albumin, than IAs were soluble proteins.

HBV [4] = assay: Inhibition of HBV infection of primary human hepatocytes, HBV RNA by real-time PCR; format: cell-based, Hepatitis B virus
Source text: as §1
In parallel with the experiment shown in FIG. 4B, experiments were designed to determined whether S1S2-IA would also act on HBV infection.

For α-interferon, the “Patients in whom effective” value (HBV [1]) is listed as “about 33%”.

With “S1-IA: immunoadhesin: HBV preS1 domain (1-119, adw2) fused N terminally to Fc region of a rabbit IgG heavy chain” the “Inhibition of HDV replication” value (HDV) was 90%.

In the case of `C=C1[C@H](CO)[C@@H](O)C[C@@H]1n1cnc2c(=O)[nH]c(N)nc21` [Entecavir], the “Suppression of HBV levels in serum” value (HBV [2]) is listed as 100,000 fold.

For “acylated peptide: synthetic peptide corresponding to positions 2-48 of the ayw PreS1, with myristoylation at the N terminal glycine [reference compound]”, the “Inhibition of HDV replication compared with S1-IA and S1S2-IA” value (HDV; primary human hepatocytes, 2, 10 and 50 nM) was “more inhibition than the two IA”.

With “S1S2-IA: immunoadhesin: HBV preS1 plus preS2 domains fused to Fc region of a rabbit IgG heavy chain” the “Inhibition of HDV replication” value (HDV) was 90%, the “Effect of 30 minute pretreatment on level of inhibition of HDV” value (HDV; pretreatment in addition to treatment during infection) was “did not significantly increase the level of inhibition” and the “Fraction remaining in the supernatant after ultracentrifugation” value [3] was greater than 85%. The “Inhibition of HBV infection compared with HDV infection” value (HBV [4]; parallel experiments) was “not significantly different” and the “Inhibition of HBV infection” value (HBV [4]; primary human hepatocytes, HBV RNA) was “there was inhibition”.
